Measurements reported in PubChem BioAssay (NCI).
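Where inhibition never reached the appropriate level, the endpoint shown equals the highest concentration tested. Otherwise, values were interpolated linearly from a five-concentration, 48-hour dose response in 96-well plates. The concentration for 50% growth inhibition is given as GI50. TGI: concentration producing complete growth inhibition.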

Columns and labels:
Assay in all cases: NCI tumour cell line growth inhibition, 48 h
MALME-3M melanoma = test system: MALME-3M melanoma
MDA-MB-231 breast = test system: MDA-MB-231 breast
NCI-H23 lung = test system: NCI-H23 lung
OVCAR-4 ovarian = test system: OVCAR-4 ovarian
SF-539 CNS = test system: SF-539 CNS
SK-MEL-5 melanoma = test system: SK-MEL-5 melanoma
SN12C renal = test system: SN12C renal
SW-620 colon = test system: SW-620 colon
UO-31 renal = test system: UO-31 renal
K-562 leukemia = test system: K-562 leukemia

SMILES	TGI (MALME-3M melanoma)	TGI (MDA-MB-231 breast)	TGI (NCI-H23 lung)	TGI (OVCAR-4 ovarian)	TGI (SF-539 CNS)	TGI (SK-MEL-5 melanoma)	TGI (SN12C renal)	TGI (SW-620 colon)	TGI (UO-31 renal)	TGI (K-562 leukemia)	GI50 (K-562 leukemia)	GI50 (MALME-3M melanoma)	GI50 (MDA-MB-231 breast)	GI50 (NCI-H23 lung)	GI50 (OVCAR-4 ovarian)	GI50 (SF-539 CNS)	GI50 (SK-MEL-5 melanoma)	GI50 (SN12C renal)	GI50 (SW-620 colon)	GI50 (UO-31 renal)
C=C1C(=O)OC2C1C(OC(=O)/C(C)=C/C)CC1(C)C(=O)CCC(=C)C21 (stereo not drawn)	23.3 µM	38.4 µM	30.1 µM	30.3 µM	32.1 µM	22.8 µM	4.09 µM	23.4 µM	13.3 µM											
CC1(C)COC(/C=C/C2=NC(C)(C)CO2)=N1	41.9 µM	44.2 µM	58.1 µM	99.5 µM	51.7 µM	27.3 µM	9.89 µM	26.9 µM	64.3 µM	63.4 µM										
COc1cccc(-c2nc3c(C(=O)NCCN(C)C)cccc3[nH]2)c1	27.6 µM		50.8 µM	84.6 µM	41.4 µM	31.5 µM	> 70.6 µM	> 54.6 µM	29.1 µM	> 70.9 µM										
Nc1nc(SCc2ccccc2)c2ncn(Cc3ccccc3)c2n1	> 89.1 µM	> 100 µM	> 100 µM	> 100 µM	> 100 µM	> 100 µM	> 100 µM	> 100 µM	> 100 µM	> 100 µM										
Fc1ccc(-c2ccc(-c3nnc(-c4cc(F)c(Cl)cc4Cl)o3)o2)cc1Cl	59 µM	> 100 µM	> 100 µM	> 100 µM	85.7 µM	31.9 µM	> 100 µM	98.3 µM	> 100 µM	> 100 µM	48.5 µM	18.8 µM	29.7 µM	47.9 µM	50.9 µM	29.4 µM	17 µM	33.3 µM	31.9 µM	34.7 µM
S=C(Nc1ccc(Cl)cc1)Nc1ccc(Cl)cc1 (tested in a mixture with another compound)	> 100 µM	3.68 µM	6.05 µM	> 100 µM	4.84 µM	2.94 µM	7.32 µM	13.8 µM	34.9 µM	> 100 µM	2.28 µM	2.55 µM	1.86 µM	1.87 µM	2.92 µM	2 µM	1.55 µM	2.49 µM	2.99 µM	2.26 µM
O=C1c2ccccc2-c2ccc(N=[N+]([O-])c3ccc4c(c3)C(=O)c3ccccc3-4)cc21	> 100 µM	> 100 µM	> 100 µM	> 100 µM		> 100 µM	> 100 µM	> 100 µM	> 100 µM	> 100 µM										
O=C1/C(=C\c2ccc(-c3ccc(Cl)cc3Cl)o2)SC2N=C(COc3ccc(Cl)cc3)NN12 (stereo not drawn)	> 100 µM	> 100 µM	> 100 µM	> 100 µM	> 100 µM	> 100 µM	> 100 µM	> 100 µM	> 100 µM	> 100 µM										
O=S(O)c1cc(Cl)cc(Cl)c1O	> 100 µM		> 100 µM	> 100 µM	> 100 µM		> 100 µM		> 100 µM	> 100 µM										
O=S(=O)(c1ccc(I)cc1)N(c1ccccc1)S(=O)(=O)C(F)(F)C(F)(F)C(F)(F)C(F)(F)F	> 100 µM	> 100 µM	> 100 µM	68.1 µM	> 100 µM		> 100 µM	> 100 µM	> 100 µM	> 100 µM										
COc1ccc(SC(C)(SC)c2ccccn2)c(OC)n1 (stereo not drawn)	> 100 µM	> 100 µM	> 100 µM	> 100 µM	> 100 µM	> 100 µM	> 100 µM	> 100 µM	> 100 µM	> 100 µM										
Oc1cc2cccc[n+]2c2cccc(Cl)c12	40.4 µM		72.5 µM	39.5 µM		34.7 µM	45.4 µM		93 µM	76 µM	25.4 µM	18.4 µM	91.5 µM	25.2 µM	16.2 µM	71.8 µM	19.7 µM	17.2 µM	32.8 µM	31.3 µM
O=C(O)C1CC(c2ccccc2)=NN1c1ccccc1 (stereo not drawn)	96.4 µM	> 100 µM	> 100 µM	> 100 µM	> 100 µM	> 100 µM	> 100 µM	> 100 µM	> 100 µM	> 100 µM										
N#C/C=C1\C=CC(O)C(O)C1OC1OC(CO)C(O)C(O)C1O (stereo not drawn)	> 100 µM	> 100 µM	> 100 µM	> 100 µM	> 100 µM	> 100 µM	> 100 µM	> 100 µM	> 100 µM	> 100 µM										
S=C1N(c2ccc(Cl)cc2)C2=C(N=Nc3ccccc3)C(=Nc3ccccc3S2)N1c1ccccn1	19.8 µM	25.4 µM	37.4 µM		30.4 µM	23.4 µM	25 µM	34.9 µM	21.7 µM											
CN(C)Cc1ccc(C(=O)Nc2ccc3ncnc(Nc4ccc(Oc5cccc(F)c5)c(Cl)c4)c3c2)cc1	3.01 µM	3.12 µM	3.09 µM	3.09 µM	3.04 µM	2.97 µM	2.81 µM	3.31 µM	2.59 µM	2.88 µM	1.17 µM	1.53 µM	1.65 µM	1.58 µM	1.53 µM	1.6 µM	1.59 µM	1.44 µM	1.76 µM	1.3 µM
CC(C)C(N=Cc1ccccc1O)C(=O)O (stereo not drawn)	> 100 µM	> 100 µM	> 100 µM	> 100 µM	> 100 µM	> 100 µM	> 100 µM	> 100 µM	> 100 µM	> 100 µM										
